Blank lines part the entries; values can stand above or below the compound they belong to.
How the values were obtained:
[1] = biological target: Beta5 (purified human constitutive proteasome) (Homo sapiens, UniProt P28074); assay: Determination of Beta5 activity (fluorescence intensity assay, Suc-LLVY-AMC); assay type: biochemical
Procedure: Determination of Beta5 Activity
Measurement of Beta5 inhibition is performed in 384 well format based on fluorescence intensity assay.
(§1) Purified human constitutive proteasome (1.25 nM) and serial diluted compounds in DMSO (range of concentrations from 30 μM to 15 pM) or controls are incubated for 20 minutes or 120 minutes (long incubation) at 25° C. in assay buffer containing 50 mM Tris pH 7.4, 0.03% SDS, 1 mM EDTA and 1% DMSO. The reaction is initiated by the addition of the fluorogenic peptide substrate, Suc-LLVY-AMC (Bachem I-1395), at a concentration of 40 μM. After 60 minutes of incubation at 37° C., fluorescence intensity is measured at λex=350 nm and λem=450 nm with a fluorescence reader (Perkin Elmer Envision reader or equivalent).
(§2) Unless indicated otherwise the results are obtained after incubation for 20 minutes.

[2] = biological target: LMP7 (purified human immunoproteasome) (Homo sapiens, UniProt P28062); assay: Determination of LMP7 activity (fluorescence intensity assay, Suc-LLVY-AMC); assay type: biochemical
Procedure: Determination of LMP7 Activity
Measurement of LMP7 inhibition is performed in 384 well format based on fluorescence intensity assay.
as §1, with “immunoproteasome (0.25” for “constitutive proteasome (1.25”
as §2

[3] = biological target: LMP7 subunit of the immunoproteasome (Homo sapiens, UniProt P28062); details: Singh et al., Br. J. Hematology 152(2): 155-163; cited from earlier work

SMILES: O=C(CCS(=O)(=O)c1ccccc1)N[C@@H](Cc1coc2ccccc12)B(O)O [Compound No. 4, [(1R)-1-[3-(benzenesulfonyl)propanoylamino]-2-(benzofuran-3-yl)ethyl]boronic acid]
IC50 ([1]; incubation for 20 minutes): < 50 nM
Selectivity LMP7 vs Beta5 ([1]; incubation for 20 minutes): +++ (+++: 30 ≤ Selectivity < 50)
IC50 ([2]; incubation for 20 minutes): < 50 nM

SMILES: CCC(=O)N(CC)CC(=O)N[C@@H](Cc1ccc(C)cc1C)B(O)O [Compound No. 24, [(1R)-2-(2,4-dimethylphenyl)-1-[[2-[ethyl(propanoyl)amino]acetyl]-amino]ethyl]boronic acid]
IC50 ([1]; incubation for 20 minutes): > 5000 nM
Selectivity LMP7 vs Beta5 ([1]; incubation for 20 minutes): +++++ (+++++: Selectivity ≥ 70)
IC50 ([2]; incubation for 20 minutes): 50 to 500 nM

SMILES: CCN(CCC(=O)N[C@@H](Cc1ccc(C)cc1C)B(O)O)C(=O)c1ccc(C)cc1 [Compound No. 19, [(1R)-2-(2,4-dimethylphenyl)-1-[3-[ethyl-(4-methylbenzoyl)amino]-propanoylamino]-ethyl]boronic acid]
IC50 ([1]; incubation for 20 minutes): 500 to 5000 nM
Selectivity LMP7 vs Beta5 ([1]; incubation for 20 minutes): +++++ (+++++: Selectivity ≥ 70)
IC50 ([2]; incubation for 20 minutes): < 50 nM

SMILES: CC1=C(C(=O)N[C@H](C)C(=O)N[C@@H](Cc2c[nH]c3ccccc23)C(=O)N[C@@H](Cc2ccccc2)C(=O)[C@@]2(C)CO2)Cc2ccccc21 [PR-924]
selectivity for the LMP7 subunit of the immunoproteasome [3]: 100 fold

SMILES: CCN(CCC(=O)N[C@@H](Cc1ccccc1)B(O)O)C(=O)c1ccc(C)cc1 [Compound No. 14, [(1R)-1-[3-[ethyl-(4-methylbenzoyl)amino]propanoylamino]-2-phenyl-ethyl]boronic acid]
IC50 ([1]; incubation for 20 minutes): 500 to 5000 nM
Selectivity LMP7 vs Beta5 ([1]; incubation for 20 minutes): +++ (+++: 30 ≤ Selectivity < 50)
IC50 ([2]; incubation for 20 minutes): < 50 nM

SMILES: CCN(CC(=O)N[C@@H](Cc1ccc(C)cc1C)B(O)O)S(=O)(=O)c1ccccc1C [Compound No. 29, [(1R)-2-(2,4-dimethylphenyl)-1-[[2-[ethyl(o-tolylsulfonyl)amino]acetyl]-amino]ethyl]boronic acid]
IC50 ([1]; incubation for 20 minutes): 500 to 5000 nM
Selectivity LMP7 vs Beta5 ([1]; incubation for 20 minutes): +++++ (+++++: Selectivity ≥ 70)
IC50 ([2]; incubation for 20 minutes): < 50 nM

SMILES: CCN(CC(=O)N[C@@H](Cc1ccc(C)cc1)B(O)O)S(=O)(=O)c1ccccc1 [Compound No. 16, [(1R)-1-[[2-[benzenesulfonyl(ethyl)amino]acetyl]amino]-2-(p-tolyl)ethyl]boronic acid]
IC50 ([1]; incubation for 20 minutes): 50 to 500 nM
Selectivity LMP7 vs Beta5 ([1]; incubation for 20 minutes): +++ (+++: 30 ≤ Selectivity < 50)
IC50 ([2]; incubation for 20 minutes): < 50 nM

SMILES: CCc1cccc(C[C@H](NC(=O)CCCS(C)(=O)=O)B(O)O)c1 [Compound No. 21, [(1R)-2-(3-ethylphenyl)-1-(4-methylsulfonylbutanoylamino)ethyl]-boronic acid]
IC50 ([1]; incubation for 20 minutes): > 5000 nM
Selectivity LMP7 vs Beta5 ([1]; incubation for 20 minutes): +++ (+++: 30 ≤ Selectivity < 50)
IC50 ([2]; incubation for 20 minutes): 50 to 500 nM

SMILES: CCc1cccc(C[C@H](NC(=O)CCCC(=O)N(C)C)B(O)O)c1 [Compound No. 18, [(1R)-1-[[5-(dimethylamino)-5-oxo-pentanoyl]amino]-2-(3-ethylphenyl)ethyl]boronic acid]
IC50 ([1]; incubation for 20 minutes): > 5000 nM
Selectivity LMP7 vs Beta5 ([1]; incubation for 20 minutes): +++ (+++: 30 ≤ Selectivity < 50)
IC50 ([2]; incubation for 20 minutes): 500 to 5000 nM

SMILES: CCN(CCC(=O)N[C@@H](Cc1ccccc1)B(O)O)C(=O)c1ccccc1 [Compound No. 8, [(1R)-1-[3-[benzoyl(ethyl)amino]propanoylamino]-2-phenyl-ethyl]boronic acid]
IC50 ([1]; incubation for 20 minutes): 500 to 5000 nM
Selectivity LMP7 vs Beta5 ([1]; incubation for 20 minutes): +++ (+++: 30 ≤ Selectivity < 50)
IC50 ([2]; incubation for 20 minutes): 50 to 500 nM

Results, then the compound that gave them:

IC50 ([1]; incubation for 20 minutes): 500 to 5000 nM
Selectivity LMP7 vs Beta5 ([1]; incubation for 20 minutes): +++++ (+++++: Selectivity ≥ 70)
IC50 ([2]; incubation for 20 minutes): < 50 nM
SMILES: Cc1ccc(S(=O)(=O)N(CC(=O)N[C@@H](Cc2ccc(C)cc2C)B(O)O)C(C)C)cc1 [Compound No. 33, [(1R)-2-(2,4-dimethylphenyl)-1-[[2-[isopropyl(p-tolylsulfonyl)amino]-acetyl]amino]ethyl]boronic acid]

IC50 ([1]; incubation for 20 minutes): > 5000 nM
Selectivity LMP7 vs Beta5 ([1]; incubation for 20 minutes): +++ (+++: 30 ≤ Selectivity < 50)
IC50 ([2]; incubation for 20 minutes): 500 to 5000 nM
SMILES: CCC(=O)N(CC(=O)N[C@@H](Cc1ccsc1)B(O)O)c1ccccc1F [Compound No. 39, [(1R)-1-[[2-(2-fluoro-N-propanoyl-anilino)acetyl]amino]-2-(3-thienyl)ethyl]boronic acid]

IC50 ([1]; incubation for 20 minutes): > 5000 nM
Selectivity LMP7 vs Beta5 ([1]; incubation for 20 minutes): +++ (+++: 30 ≤ Selectivity < 50)
IC50 ([2]; incubation for 20 minutes): 50 to 500 nM
SMILES: CCN(CC(=O)N[C@@H](Cc1ccc(C)cc1C)B(O)O)C(=O)CCl [Compound No. 37, [(1R)-1-[[2-[(2-chloroacetyl)-ethyl-amino]acetyl]amino]-2-(2,4-dimethylphenyl)ethyl]boronic acid]

IC50 ([1]; incubation for 20 minutes): 50 to 500 nM
Selectivity LMP7 vs Beta5 ([1]; incubation for 20 minutes): ++++ (++++: 50 ≤ Selectivity < 70)
IC50 ([2]; incubation for 20 minutes): < 50 nM
SMILES: Cc1ccc(C[C@H](NC(=O)CN(c2ccccc2)S(=O)(=O)c2ccccc2)B(O)O)c(C)c1 [Compound No. 35, [(1R)-1-[[2-[N-(benzenesulfonyl)anilino]acetyl]amino]-2-(2,4-dimethylphenyl)ethyl]boronic acid]

IC50 ([1]; long incubation (120 min)): > 5000 nM
IC50 ([2]; long incubation (120 min)): 500 to 5000 nM
SMILES: CN(CC(=O)N[C@@H](Cc1ccsc1)B(O)O)C(=O)c1ccccc1C(F)(F)F [Compound No. 40, [(1R)-1-[[2-[methyl-[2-(trifluoromethyl)benzoyl]amino]acetyl]amino]-2-(3-thienyl)ethyl]boronic acid]

IC50 ([1]; long incubation (120 min)): 500 to 5000 nM
Selectivity LMP7 vs Beta5 ([1]; long incubation (120 min)): +++++ (+++++: Selectivity ≥ 70)
IC50 ([2]; long incubation (120 min)): < 50 nM
SMILES: Cc1ccc(S(=O)(=O)N(CC(=O)N[C@@H](C[C@@H]2COc3ccccc32)B(O)O)C(C)C)cc1 [Compound No. 41, [(1R)-2-[(3S)-2,3-dihydrobenzofuran-3-yl]-1-[[2-[isopropyl(p-tolylsulfonyl)amino]acetyl]amino]ethyl]boronic acid]

IC50 ([1]; incubation for 20 minutes): 50 to 500 nM
Selectivity LMP7 vs Beta5 ([1]; incubation for 20 minutes): ++++ (++++: 50 ≤ Selectivity < 70)
IC50 ([2]; incubation for 20 minutes): < 50 nM
SMILES: CCN(CC(=O)N[C@@H](Cc1ccc(C)cc1C)B(O)O)S(=O)(=O)c1cccc(C)c1 [Compound No. 31, [(1R)-2-(2,4-dimethylphenyl)-1-[[2-[ethyl(m-tolylsulfonyl)amino]-acetyl]amino]ethyl]boronic acid]

IC50 ([1]; long incubation (120 min)): 50 to 500 nM
Selectivity LMP7 vs Beta5 ([1]; long incubation (120 min)): +++++ (+++++: Selectivity ≥ 70)
IC50 ([2]; long incubation (120 min)): < 50 nM
SMILES: CCN(CCC(=O)N[C@@H](C[C@@H]1COc2ccccc21)B(O)O)C(=O)c1ccc(Cl)cc1 [Compound No. 42, [(1R)-1-[3-[(4-chlorobenzoyl)-ethyl-amino]propanoylamino]-2-[(3S)-2,3-dihydrobenzofuran-3-yl]ethyl]boronic acid]

IC50 ([1]; incubation for 20 minutes): 50 to 500 nM
Selectivity LMP7 vs Beta5 ([1]; incubation for 20 minutes): +++++ (+++++: Selectivity ≥ 70)
IC50 ([2]; incubation for 20 minutes): < 50 nM
SMILES: Cc1ccc(S(=O)(=O)N(C)CC(=O)N[C@@H](Cc2ccc(C)cc2C)B(O)O)cc1 [Compound No. 32, [(1R)-2-(2,4-dimethylphenyl)-1-[[2-[methyl(p-tolylsulfonyl)amino]-acetyl]amino]ethyl]boronic acid]

IC50 ([1]; incubation for 20 minutes): 500 to 5000 nM
Selectivity LMP7 vs Beta5 ([1]; incubation for 20 minutes): +++++ (+++++: Selectivity ≥ 70)
IC50 ([2]; incubation for 20 minutes): < 50 nM
SMILES: CN(C)C(=O)C(C(=O)N[C@@H](Cc1coc2ccccc12)B(O)O)c1ccccc1 (stereo partly drawn) [Compound No. 38, [(1R)-2-(benzofuran-3-yl)-1-[[3-(dimethylamino)-3-oxo-2-phenyl-propanoyl]amino]ethyl]boronic acid]
